Results: US12070501B1, “Topical ophthalmological compositions” (ADS Therapeutics LLC, priority 2021, dated 2024)

Assays:
[1] = system: New Zealand White rabbits
[2] = water-based formulation at neutral pH; cited from earlier work
[3] = Miscibility of semi-fluorinated alkane F6H8 with MCT or light liquid paraffin oil; assay type: physicochemical
Description: F6H8, a semi-fluorinated alkane was tested for miscibility with MCT with the ratio of F6H8 to MCT from 1:99 to 99:1. […] F6H8, a semi-fluorinated alkane was tested for miscibility with light liquid paraffin oil with the ratio of F6H8 to light liquid paraffin oil from 1:99 to 99:1.

| Compound | Magnitude of pupil size changes versus atropine sulfate in aqueous solution ([1]; atropine in F6H8-based formulation, at comparable doses) | Dose response in pupil size dilation ([1]; from 0.01% to 0.05% atropine, Day 7 and Day 22) | Pupil size dilation ([1]; topical ocular instillation twice daily, 40 μL to left eye, Day 7 and Day 22, CBT-009 at 0.01%, […] and 0.05% in […] phenylethyl alcohol, 10% MCT, 89.75% F6H8, comparator 0.03%) | Shelf life of the product [2] | Miscibility with MCT ([3]; ratio of F6H8 to MCT from 1:99 to 99:1) | Miscibility with light liquid paraffin oil ([3]; ratio of F6H8 to light liquid paraffin oil from 1:99 to 99:1) |
| --- | --- | --- | --- | --- | --- | --- |
| CN1[C@@H]2CC[C@H]1C[C@@H](OC(=O)C(CO)c1ccccc1)C2 (stereo partly drawn) [Atropine, atropine] | comparable | dose response in pupil size dilation was observed | pupil size dilation was observed | less than 1 year |  |  |
| CCCCCCCCC(F)(F)C(F)(F)C(F)(F)C(F)(F)C(F)(F)C(F)(F)F [F6H8, perfluorohexyloctane] |  |  |  |  | miscible with MCT at all ratios | miscible with light liquid paraffin oil at all ratios |
